Data on 17 molecules can be found in patent publication US20260297081A1, “COMPOUNDS AND METHODS OF TREATING CANCERS” (Cullgen Inc., priority 2023, published 2026).

Broadly, the IC50 is the point on the concentration scale where inhibition reaches its midpoint.

The test system of one assay is MCF7 cells. The assay is described as follows: Anti-proliferation (viability) of MCF7 cells (Table 7, FIG. 2B). In kind it is cell-based. The note with it: Homo sapiens, MCF7, MCF7 cells, 3-6 days, 10-point serial dilution; read-out: GI IC50 in MCF-7.
For the molecule `CC(=O)c1c(C)c2cnc(Nc3ccc(N4CCN(CC(=O)NCC5CC(Nc6ccc(C(F)(F)F)cc6C(=O)Nc6cc(C)n(C)n6)C5)CC4)cn3)nc2n(C2CCCC2)c1=O` (centres unmarked) [CPD-262, 2-((3-((2-(4-(6-((6-acetyl-8-cyclopentyl-5-methyl-7-oxo-7,8-dihydropyrido[2,3-d]pyrimidin-2-yl)amino)pyridin-3-yl)piperazin-1-yl)acetamido)methyl)cyclobutyl)amino)-N-(1,5-dimethyl-1H-pyrazol-3-yl)-5-(trifluoromethyl)benzamide], the IC50 was more than 100 nM.

`CNc1ccc(C(=O)Nc2ccc(N(C)C)nn2)c(NC2CCC(N(C)C(=O)CN3CCN(c4ccc(Nc5ncc6c(C)c(C(C)=O)c(=O)n(C7CCCC7)c6n5)nc4)CC3)C2)n1` (centres unmarked) [CPD-430, 2-((3-(2-(4-(6-((6-acetyl-8-cyclopentyl-5-methyl-7-oxo-7,8-dihydropyrido[2,3-d]pyrimidin-2-yl)amino)pyridin-3-yl)piperazin-1-yl)-N-methylacetamido)cyclopentyl)amino)-N-(6-(dimethylamino)pyridazin-3-yl)-6-(methylamino)nicotinamide]: the concentration for half-maximal inhibition (IC50) was more than 100 nM.

Regarding `CNc1ccc(C(=O)Nc2ccc(N(C)C)nn2)c(NC2CC(C(=O)NC3CCC4(CCN(c5ccc(Nc6ncc7c(C)c(C(C)=O)c(=O)n(C8CCCC8)c7n6)nc5)CC4)C3)C2)n1` (centres unmarked) [CPD-428, 2-((3-((8-(6-((6-acetyl-8-cyclopentyl-5-methyl-7-oxo-7,8-dihydropyrido[2,3-d]pyrimidin-2-yl)amino)pyridin-3-yl)-8-azaspiro[4.5]decan-2-yl)carbamoyl)cyclobutyl)amino)-N-(6-(dimethylamino)pyridazin-3-yl)-6-(methylamino)nicotinamide], the half-maximal inhibitory concentration (IC50) was more than 100 nM.

Turning to `CC(=O)c1c(C)c2cnc(Nc3ccc(N4CCC(NCC(=O)N5CCC(Nc6nc(NC(C)C)ccc6C(=O)Nc6ccc(N(C)C)nn6)C5)CC4)cn3)nc2n(C2CCCC2)c1=O` (centres unmarked) [CPD-372, 2-((1-((1-(6-((6-acetyl-8-cyclopentyl-5-methyl-7-oxo-7,8-dihydropyrido[2,3-d]pyrimidin-2-yl)amino)pyridin-3-yl)piperidin-4-yl)glycyl)pyrrolidin-3-yl)amino)-N-(6-(dimethylamino)pyridazin-3-yl)-6-(isopropylamino)nicotinamide], the 50% inhibitory concentration (IC50) is more than 100 nM.

As for `CNc1ccc(C(=O)Nc2ccc(N(C)C)nn2)c(NC2CC(C(=O)N3CCC4(CC3)CCN(c3ccc(Nc5ncc6c(C)c(C(C)=O)c(=O)n(C7CCCC7)c6n5)nc3)CC4)C2)n1` (centres unmarked) [CPD-337, 2-((3-(9-(6-((6-acetyl-8-cyclopentyl-5-methyl-7-oxo-7,8-dihydropyrido[2,3-d]pyrimidin-2-yl)amino)pyridin-3-yl)-3,9-diazaspiro[5.5]undecane-3-carbonyl)cyclobutyl)amino)-N-(6-(dimethylamino)pyridazin-3-yl)-6-(methylamino)nicotinamide], the IC50 is more than 100 nM.

`[2H]C([2H])([2H])Nc1ccc(C(=O)Nc2cn(C)c(C3CC3)n2)c(NC2CC3(C2)CN(C(=O)CC(C)N2CCN(c4ccc(Nc5ncc6c(C)c(C(C)=O)c(=O)n(C7CCCC7)c6n5)nc4)CC2)C3)n1` (centres unmarked) [CPD-339, 2-((2-(3-(4-(6-((6-acetyl-8-cyclopentyl-5-methyl-7-oxo-7,8-dihydropyrido[2,3-d]pyrimidin-2-yl)amino)pyridin-3-yl)piperazin-1-yl)butanoyl)-2-azaspiro[3.3]heptan-6-yl)amino)-N-(2-cyclopropyl-1-methyl-1H-imidazol-4-yl)-6-((methyl-d3)amino)nicotinamide]: the IC50 is 50 to 100 nM.

Take `CNc1ccc(C(=O)Nc2cn(C)c(C3CCCC3)n2)c(NC2CC3(CC(NC(=O)CN4CCN(c5ccc(Nc6ncc7c(C)c(C(C)=O)c(=O)n(C8CCCC8)c7n6)nc5)CC4)C3)C2)n1` (centres unmarked) [CPD-296, 2-((6-(2-(4-(6-((6-acetyl-8-cyclopentyl-5-methyl-7-oxo-7,8-dihydropyrido[2,3-d]pyrimidin-2-yl)amino)pyridin-3-yl)piperazin-1-yl)acetamido)spiro[3.3]heptan-2-yl)amino)-N-(2-cyclopentyl-1-methyl-1H-imidazol-4-yl)-6-(methylamino)nicotinamide]: the IC50 is more than 100 nM.

As to `CC(=O)c1c(C)c2cnc(Nc3ccc(N4CCN(CC(=O)NC5CCC(Nc6nc(NC(C)C)ccc6C(=O)Nc6cc(C)on6)C5)CC4)cn3)nc2n(C2CCCC2)c1=O` (centres unmarked) [CPD-295, 2-((3-(2-(4-(6-((6-acetyl-8-cyclopentyl-5-methyl-7-oxo-7,8-dihydropyrido[2,3-d]pyrimidin-2-yl)amino)pyridin-3-yl)piperazin-1-yl)acetamido)cyclopentyl)amino)-6-(isopropylamino)-N-(5-methylisoxazol-3-yl)nicotinamide], the half-maximal inhibitory concentration (IC50) was more than 100 nM.

Take `CNc1ccc(C(=O)Nc2ccc(N(C)C)nn2)c(NC2CCC(C(=O)N3CCC4(CC3)CCN(c3ccc(Nc5ncc6c(C)c(C(C)=O)c(=O)n(C7CCCC7)c6n5)nc3)CC4)CC2)n1` (centres unmarked) [CPD-350, 2-((4-(9-(6-((6-acetyl-8-cyclopentyl-5-methyl-7-oxo-7,8-dihydropyrido[2,3-d]pyrimidin-2-yl)amino)pyridin-3-yl)-3,9-diazaspiro[5.5]undecane-3-carbonyl)cyclohexyl)amino)-N-(6-(dimethylamino)pyridazin-3-yl)-6-(methylamino)nicotinamide]: the IC50 was more than 100 nM.

Regarding `CC(=O)c1c(C)c2cnc(Nc3ccc(N4CCN(C(C)CC(=O)N5CC(Nc6nc(NC(C)C)ccc6C(=O)Nc6ccc(N(C)C)nn6)C5)CC4)cn3)nc2n(C2CCCC2)c1=O` (centres unmarked) [CPD-355, 2-((1-(3-(4-(6-((6-acetyl-8-cyclopentyl-5-methyl-7-oxo-7,8-dihydropyrido[2,3-d]pyrimidin-2-yl)amino)pyridin-3-yl)piperazin-1-yl)butanoyl)azetidin-3-yl)amino)-N-(6-(dimethylamino)pyridazin-3-yl)-6-(isopropylamino)nicotinamide], the half-maximal inhibitory concentration (IC50) lay within 50 to 100 nM.

`CC(=O)c1c(C)c2cnc(Nc3ccc(N4CCC5(CC4)CC5C(=O)NC4CCC(Nc5nc(NC(C)C)ccc5C(=O)Nc5ccc(N(C)C)nn5)C4)cn3)nc2n(C2CCCC2)c1=O` (centres unmarked) [CPD-417, 6-(6-((6-acetyl-8-cyclopentyl-5-methyl-7-oxo-7,8-dihydropyrido[2,3-d]pyrimidin-2-yl)amino)pyridin-3-yl)-N-(3-((3-((6-(dimethylamino)pyridazin-3-yl)carbamoyl)-6-(isopropylamino)pyridin-2-yl)amino)cyclopentyl)-6-azaspiro[2.5]octane-1-carboxamide]: the 50% inhibitory concentration (IC50) is more than 100 nM.

Turning to `CNc1ccc(C(=O)Nc2ccc(N(C)C)nn2)c(NC23CC(NC(=O)CN4CCN(c5ccc(Nc6ncc7c(C)c(C(C)=O)c(=O)n(C8CCCC8)c7n6)nc5)CC4)(C2)C3)n1` [CPD-346, 2-((3-(2-(4-(6-((6-acetyl-8-cyclopentyl-5-methyl-7-oxo-7,8-dihydropyrido[2,3-d]pyrimidin-2-yl)amino)pyridin-3-yl)piperazin-1-yl)acetamido)bicyclo[1.1.1]pentan-1-yl)amino)-N-(6-(dimethylamino)pyridazin-3-yl)-6-(methylamino)nicotinamide], the IC50 was more than 100 nM.

Take `CC(=O)c1c(C)c2cnc(Nc3ccc(N4CCN(CC(=O)NC5CC6(C5)CC(Nc5cc(F)ccc5C(=O)Nc5cc(C)on5)C6)CC4)cn3)nc2n(C2CCCC2)c1=O` (centres unmarked) [CPD-260, 2-((6-(2-(4-(6-((6-acetyl-8-cyclopentyl-5-methyl-7-oxo-7,8-dihydropyrido[2,3-d]pyrimidin-2-yl)amino)pyridin-3-yl)piperazin-1-yl)acetamido)spiro[3.3]heptan-2-yl)amino)-4-fluoro-N-(5-methylisoxazol-3-yl)benzamide]: the IC50 is more than 100 nM.

`CNc1ccc(C(=O)Nc2ccc(N(C)C)nn2)c(NC2CC(C(=O)N3CC4(CCN(c5ccc(Nc6ncc7c(C)c(C(C)=O)c(=O)n(C8CCCC8)c7n6)nc5)CC4)C3)C2)n1` (centres unmarked) [CPD-331, 2-((3-(7-(6-((6-acetyl-8-cyclopentyl-5-methyl-7-oxo-7,8-dihydropyrido[2,3-d]pyrimidin-2-yl)amino)pyridin-3-yl)-2,7-diazaspiro[3.5]nonane-2-carbonyl)cyclobutyl)amino)-N-(6-(dimethylamino)pyridazin-3-yl)-6-(methylamino)nicotinamide]: the IC50 was more than 100 nM.

As for `[2H]C([2H])([2H])Nc1ccc(C(=O)Nc2cn(C)c(C3CC3)n2)c(NC2CC3(CC(NC(=O)C(C)N4CCN(c5ccc(Nc6ncc7c(C)c(C(C)=O)c(=O)n(C8CCCC8)c7n6)nc5)CC4)C3)C2)n1` (centres unmarked) [CPD-405, 2-((6-(2-(4-(6-((6-acetyl-8-cyclopentyl-5-methyl-7-oxo-7,8-dihydropyrido[2,3-d]pyrimidin-2-yl)amino)pyridin-3-yl)piperazin-1-yl)propanamido)spiro[3.3]heptan-2-yl)amino)-N-(2-cyclopropyl-1-methyl-1H-imidazol-4-yl)-6-((methyl-d3)amino)nicotinamide], the IC50 was more than 100 nM.

Take `CC(=O)c1c(C)c2cnc(Nc3ccc(N4CCC(N5CCC(C(=O)N6CCC(Nc7nc(NC(C)C)ccc7C(=O)Nc7ccc(N(C)C)nn7)C6)C5)CC4)cn3)nc2n(C2CCCC2)c1=O` (centres unmarked) [CPD-395, 2-((1-(1-(1-(6-((6-acetyl-8-cyclopentyl-5-methyl-7-oxo-7,8-dihydropyrido[2,3-d]pyrimidin-2-yl)amino)pyridin-3-yl)piperidin-4-yl)pyrrolidine-3-carbonyl)pyrrolidin-3-yl)amino)-N-(6-(dimethylamino)pyridazin-3-yl)-6-(isopropylamino)nicotinamide]: the IC50 is more than 100 nM.

The assay is the same for the next values; noted with them: MCF7 cells, 3-6 days, 10-point serial dilution; read-out: GI IC50 in MCF-7.
Take `CC(=O)c1c(C)c2cnc(Nc3ccc(N4CCN(C5CCN(C(=O)C6(O)CCC(Nc7nc(NC(C)C)ccc7C(=O)Nc7ccc(N(C)C)nn7)CC6)C5)CC4)cn3)nc2n(C2CCCC2)c1=O` (stereo not drawn) [CPD-575, 2-((trans-4-(3-(4-(6-((6-acetyl-8-cyclopentyl-5-methyl-7-oxo-7,8-dihydropyrido[2,3-d]pyrimidin-2-yl)amino)pyridin-3-yl)piperazin-1-yl)pyrrolidine-1-carbonyl)-4-hydroxycyclohexyl)amino)-N-(6-(dimethylamino)pyridazin-3-yl)-6-(isopropylamino)nicotinamide]: the IC50 was more than 100 nM.
